SMILES | melting point
CN1CCN(CNc2nc(=O)n(CN3CCN(C)CC3)cc2F)CC1 | 165 to 166 °C
OC1CCc2c(I)cccc21 (stereo unspecified) | 83 to 84 °C
CC(=O)OCc1nc([N+](=O)[O-])c(Br)n1C | 92 to 97 °C
COc1ccc(CSCC(C)C(=O)O)cc1 (stereo unspecified) | 74 to 82 °C
O=C(c1ccc(Cl)cc1)C1(n2cnc(Cl)n2)CC1 | 85 °C
COC(=O)c1cc(Cl)cc2c1OC(C)(C)C(=O)N2 | 178 to 179 °C
CCOC(=O)C1=CC=C2C(=CNN2CC)N1NN=C(C)CC#N | 190 to 191 °C
CCCCCCCCCCOc1cc(OCCCCCCc2cccc(O)c2O)cc(C(=O)OC)c1 | 71 to 72 °C
Cn1nnc2ccc3nc(O)c(O)nc3c21 | > 300 °C
CCC1N=C(c2ccccc2Cl)c2cc(CC(=O)OC)sc2NC1=O (stereo unspecified) | 202 to 204 °C
OCC1Cc2cc(F)cc(Br)c2O1 (stereo unspecified) | 53 to 57 °C
Cc1ccc(C23CCN(C)CC2O3)cc1 (stereo unspecified) | 46 to 50 °C
CCOC(=O)C1C(=O)CC(C)(O)C(C(=O)OCC)C1c1cc(C)c2oc(C)c(C)c2c1 (stereo unspecified) | 168 to 171 °C
N#Cc1ccc(-c2nc(Cl)c3c(n2)CCCC3)cc1 | 190 °C
COc1cccc2c1CCNC2=S | 44 to 46 °C
CCOC(=O)c1cnc2scc(C)c2c1O | 189 to 192 °C
Fc1ccc(-c2cn([C@H]3CN4CCC3CC4)nn2)cc1F | 122 °C
CCC(COC)Nc1c([N+](=O)[O-])cc(C)c(C)c1[N+](=O)[O-] (single isomer, unassigned; (-)) | 42.5 to 44 °C
CCCc1cc(F)c(C(=O)O)cc1O | 134 to 136 °C
COc1cc2nc(Cl)nc(Nc3ccc4[nH]ncc4c3)c2cc1OC | 279 to 284 °C
Cc1ccc(NP(N)(N)=O)c([N+](=O)[O-])c1 | > 180 °C
CCN(CC)C(=O)COc1ccc(C(=O)CCl)cc1 | 89 to 91 °C
COc1cc(C(C)=O)ccc1OCCCN1C2CCC1CC(c1nsc3cc(F)ccc13)C2 (stereo unspecified) | 118 to 119 °C
COc1cc(-c2nc(-n3c(C)ccc3C)sc2SCC2CCCC2)c(OC)cc1C | 108 °C
FC(F)(F)Oc1ccc(-n2cc(CBr)cn2)cc1 | 50 to 51 °C

SMILES | melting point
CCCCCCCCCCCCc1ccc2c(Cl)cccc2c1O | 68 to 70 °C
COc1ccc2c(c1OC)CC[C@H]1[C@H]2CCCN1CCc1ccccc1 (relative stereo) | 110 to 111 °C
CS(=O)(=O)NCCCCC(c1cc(F)ccc1F)S(=O)(=O)c1ccc(Cl)cc1 (stereo unspecified) | 106 to 107 °C
[N-]=[N+]=NCCO/N=C(\C(=O)O)c1csc(N)n1 | 180 °C
Nc1nc2[nH]c(CCC#Cc3ccc(C(=O)N[C@@H](CCC(=O)O)C(=O)O)cn3)cc2c(=O)[nH]1 | 178 to 179 °C
CN1CCC(C2=CC(=O)CCC2)C1=O (stereo unspecified) | 42 to 46 °C
Fc1cccc(-c2cncnc2)c1 | 63 to 63.5 °C
CP(=O)(O)CC(F)CN (stereo unspecified) | 78 to 84 °C
COc1cc(CCNC(=O)N(C)O)cc(OC)c1OC | 100 to 102 °C
CS(=O)(=O)NC(CCC(O)(Cn1cncn1)c1ccc(F)cc1F)C(=O)O (stereo unspecified) | 165 to 173 °C
CC1=C(CCOC(=O)C(C)(C)C)C2=C(O)N(I)CN(CCOC(=O)C(C)(C)C)C2=N1 | 155 °C
CCCCC(=O)OCC(=O)C12OCOC1CC1C3CCC4=CC(=O)C=CC4(C)C3C(O)CC12C (stereo unspecified) | 121 to 122 °C
COc1cc2c(cc1OC)C(c1cccc(Cl)c1)=NNC(C)C2 (stereo unspecified) | 116 to 120 °C
N#Cc1c[nH]cc1-c1cccc(C(F)(F)F)c1Cl | 82 °C
C=Cn1cc(C(=O)O)c(=O)c2cc(Cl)c(N3CCNCC3)nc21 | 272 to 274 °C
N#Cc1cc([N+](=O)[O-])ccc1Oc1cc(Cl)c(Cl)c(Cl)c1 | 162 to 164 °C
CSc1nnc(-c2ccc(Cl)cc2)o1 | 121 to 123 °C
CCOC(=O)C1(NS(=O)(=O)c2ccc3c(Cl)cnc(NC(=N)N)c3c2)CCCC1 | 225 to 226 °C
CNC(N)=C(CCSCc1csc(CN(C)C)n1)[N+](=O)[O-] | 130 to 132 °C
COc1cc2c(C3=CCNCC3)c[nH]c2cc1Cl | 222 to 224 °C
COc1nc(C)c2c(c1C#N)CCCC2=O | 128 °C
O=C1NC(=O)C2(CC(Br)c3ccccc32)N1 (stereo unspecified) | 58 to 65 °C
CCOC(=O)N(N=C[N+](=O)[O-])c1ccc(C(=O)OC)c(S(=O)(=O)NC(C)(C)C)c1 | 142 to 145 °C
CCNC(=O)C(=O)[C@H](Cc1ccccc1)NC(=O)[C@H](CC(C)C)NC(=O)O[C@H]1CCOC1 | 159 to 161 °C

Now from value to compound:

melting point | SMILES
221 to 223 °C | CCc1nnc2c(OC)nc3cc(Cl)ccc3n12
88 °C | Cc1ccccc1COCn1cc(Cl)cnc1=O
52 to 53 °C | CCOC(=O)C(C)Oc1ncn(-c2ccc(OC(F)(F)F)cc2)n1 (stereo unspecified)
178 to 180 °C | O=C(Nc1ccccc1)OCc1cn(-c2cc3cc(C(=O)O)c(=O)[nH]c3cc2C(F)(F)F)cn1
257 to 259 °C | CS(=O)(=O)N1CCN(c2cc3ccccc3c(=O)[nH]2)CC1
155 °C | CCCOC(=O)C1=C(N)NC(C)=C(C(=O)OC)C1c1cccc([N+](=O)[O-])c1 (stereo unspecified)
121 to 122 °C | O=C(Cn1ccnc1)c1ccccc1
> 230 °C | CSc1nn2c(N)cc(C)nc2c1S(=O)(=O)c1ccccc1
194 to 196 °C | CCOC(=O)c1ccc(-n2cnnc2S)cc1
229 to 230 °C | CCOC(=O)C1=C(C=NO)Nc2nccn2C1c1cccc([N+](=O)[O-])c1 (stereo unspecified)
94 to 96 °C | CC1C(=O)Oc2c1cccc2S(=O)(=O)c1ccccc1Cl (stereo unspecified)
153 to 154 °C | COc1ccc(Nc2ccc(OC)c3ccccc23)cc1C(=O)O
244 to 245 °C | CC(C)(C)C(NC(=O)c1cccc(Br)c1)Nc1c(Nc2cccnc2)c(=O)c1=O (stereo unspecified)
96 to 98 °C | COc1ccc(-c2ccc(COCCc3cccc(NS(=O)(=O)C(F)(F)F)c3)cc2)cc1
244 to 245 °C | COc1ccc(CSc2nnc(-c3ccnc(NC(=O)OC(C)(C)C)c3)o2)cc1F
131 °C | CCOC(=O)c1c(O)c2cc(F)ccc2n(C)c1=O
258 to 259 °C | CC(C)C(=O)NCc1ccc(NC(=O)/C=C/c2cnn(C)c2-c2ccc(F)cc2)cc1
205 to 210 °C | Cc1c(C(=O)Nc2ccc(N3CCC(N4CCOCC4)CC3)c(Br)c2)cnn1-c1ccc(Cl)cc1
95 to 96 °C | COc1cc(COc2nn(-c3ccccc3)cc2CC2=NCCO2)ccc1OCc1nc(-c2ccco2)oc1C
60 to 63 °C | Nc1ccc([C@H]2CC[C@H](NCCCc3ccccc3)CC2)cc1
160 °C | Cc1cc(-n2ccnc2)c2cccc(OCc3c(Cl)ccc(S(=O)(=O)N4CCC[C@H]4C(=O)NCC4CCN(CCO)CC4)c3Cl)c2n1
56 to 57 °C | OCc1ccc(OCc2ccccc2)c(F)c1
141 to 142 °C | Cc1nnc(-c2ccc3occ(-c4ccc(SCc5ccccc5C#N)cc4)c3c2)o1
146 to 148 °C | CCC[C@H]1C(=O)N(S(=O)(=O)c2cccc3ccccc23)[C@H]2CCN(S(=O)(=O)CCCN3CCOCC3)[C@H]12 (relative stereo)
153 to 155 °C | CSC(C(=O)N(C)C)c1cccc(C(=O)c2ccccc2)c1N (stereo unspecified)
108 to 109 °C | Cc1c(Cl)cccc1S(=O)(=O)Nc1ccc2sccc2c1

melting point | SMILES
147 to 148 °C | COC(=O)C=C(C)C=CC1(O)C(C)=CC(=O)c2ccccc21 (stereo unspecified)
167 °C | Cc1cc(-c2ccc(C(F)(F)F)cc2)cc(-c2cccc(-c3cccc(N)c3)n2)n1
> 200 °C | O=C(NCCN1CCCC1)c1ccc(-c2cnc3c(c2)N(Cc2c(Cl)cccc2Cl)C(=O)CN3)cc1
132 °C | O=C(NCC#CCN1CCCC1)N1c2ccccc2-c2noc3c2C1CCC3 (stereo unspecified)
244 to 247 °C | Nc1ncnc2c1c(-c1cccc(F)c1)nn2Cc1oc2ccccc2c(=O)c1-c1ccccc1
251 to 252 °C | CNC(=O)Cc1c(-c2ccc(C)cc2)nc2n(C)c3ccccc3n12
157 to 158 °C | O=C(Cc1ccccc1)NC1SCCN1Cc1ccc(Cl)nc1 (stereo unspecified)
308 to 310 °C | COC(=O)c1ccc2nnc(C(=O)NCc3ccc(Cl)cc3)c(O)c2c1
269 to 270 °C | COC(=O)c1ccc(Oc2ccc3c(c2)CCN(C2CCN(C4CCC4)CC2)C3=O)cc1
51 to 53 °C | C(#Cc1ccncc1)c1ccccc1
239 to 241 °C | COc1cc2c(cc1OC)-c1cc(Nc3ccc(C)cc3C)nc(=O)n1CC2
59 to 60 °C | CCCc1c(OCCC2Cc3cc(CC(=O)OC)ccc3O2)ccc(C(C)=O)c1O (stereo unspecified)
227 to 236 °C | O=C(Nc1cc(Cl)ccc1OCc1nnn[nH]1)c1cc(-c2ccc(Cl)cc2)oc1C(F)(F)F
168 to 169 °C | CCOC(=O)C(=O)CC(=O)c1cn(Cc2ccncc2)c2ccccc2c1=O
240 to 244 °C | CCNC(=O)Nc1ccc(-c2sc3c(c2CN(C)CCC(=O)N2CCCC2)c(=O)n(-c2ccccc2)c(=O)n3Cc2c(F)cccc2F)cc1
201 to 204 °C | COc1ccc(C(=O)N2CCNC2=Nc2c(Cl)cccc2Cl)cc1OC
191 to 192 °C | NC(=O)C1(CCC(=O)O)c2ccccc2-c2ccccc21
220 to 221 °C | COc1ccc(C(=O)Sc2ccc(C(=O)O)cc2)cc1C(C)(C)C
138 to 139 °C | N#Cc1ccc(NC(=O)c2cccc(OCc3ccc(OC(F)(F)F)cc3)c2)cc1
239 to 240 °C | Oc1ccccc1-c1cnc2cnc(-c3ccccc3O)nc2c1
235 to 238 °C | O=C(NCc1ccc(Cl)cc1)c1cnc2cccc(O)c2c1O
144 to 146 °C | Cc1nc2c(OCc3c(Cl)ccc(S(=O)(=O)N4CCC[C@H]4C(=O)NCc4ccc(C=NN)cc4)c3Cl)cccn2c1C
91 to 92 °C | COc1ccc(C=CC(=O)c2cccc(OCCCCBr)c2)cc1
239 to 241 °C | CC(=NNc1ccccc1)c1ccc(N2CCN(c3c(C)nc(N)nc3N)CC2)cc1
250 °C | Oc1ccc(C(NC(c2ccccc2)c2ccccc2)P(O)O)c(O)c1 (stereo unspecified)
189 to 190 °C | COC(=O)C1C(=O)Nc2ccc(Cl)cc2CC1c1ccc(OC)cc1 (stereo unspecified)
